*: point of attachment. Mu = morpholinocarbonyl, O=C(N1CCOCC1)*; Dox = doxorubicin
Assays:
[1] = target: T1, endoplasmic reticulum Ca2+-ATPase (SERCA), SR vesicles from rabbit skeletal muscle (Oryctolagus cuniculus, UniProt P04191); assay: SERCA inhibition: 45Ca2+ uptake to sarcoplasmic reticulum vesicles; format: biochemical; conditions: mean (n=3) ± standard error; 5 μg/ml SR protein, free Ca2+ 100 nM, 4 min uptake; read-out: IC50 (50% inhibition of 45Ca2+ uptake to SR vesicles)
T1 construct: sarcoplasmic reticulum (SR) vesicles prepared from rabbit skeletal muscle; from tissue; host or cells: rabbit skeletal muscle sarcoplasmic reticulum vesicles
Procedure: The primary amine-containing thapsigargin analogs of the invention have endoplasmic reticulum Ca^2+-ATPase inhibitory activity. This activity is measured as the concentration of analog needed to inhibit 50% of this ATPase (IC50). The IC50 of the analogs of the invention is desirably at most 500 nM, preferably at most 200 nM, and more preferably at most 50 nM of analog.
The inhibitory potency of thapsigargin and its analogs was determined as the concentration required to produce 50% inhibition (i.e. IC50) of ^45Ca^2+ uptake to sarcoplasmic reticulum (SR) vesicles prepared from rabbit skeletal muscle by the method of De Meis and Hasselbach (J. Biol. Chem., 246: 4759-4763, 1971). The ^45Ca^2+ uptake assay was as described previously (Christensen, et al., FEBS, 335: 345-348, 1993), with the following modifications: 5 μg/ml of SR protein was incubated at 25EC and free Ca^2+ adjusted to 100 nM using 4 min. uptake time. Under these conditions, Ca^2+ could proceed linearly with time for at least 8 minutes. Measurements of Ca^2+ within TSU cells was determined as described previously (Lin et al., The Prostate, 33:201-207, 1997).
The IC50 results are mean (n=3)±standard error. The LC50 results are mean (n=5)±standard error. The entry “ND” stands for “not determined”. Clonogenic survival not determined above 10 μM for dBTG. Analogs with −boc have a t-butoxycarbonyl (boc) protected amino group.

[2] = Clonogenic survival of TSU-Pr1 cells after 72 hours exposure to TG analogs; format: cell-based, human; conditions: human; TSU-Pr1, 72 hours exposure; mean (n=5) ± standard error; read-out: LC50 (concentration needed to kill 50% of clonogenic cells)
How it was run: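 Androgen-independent human prostate cancer TSU-Pr1 cells (2×10^5) were exposed for 72 h to varying thapsigargin analog concentrations, and clonogenic survival was then assessed. LC50 is the concentration killing 50% of clonogenic cells, reported as mean of n=5 ± SE.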

[3] = Cytotoxic activity (LD50) of thapsigargin and debutanoyl derivative; format: cell-based
Procedure: The starting material for all the synthesized analogs is 8-O-debutanoylthapsigargin, which is easily available by triethylamine catalyzed methanolysis of thapsigargin. Removal of the butanoyl results in loss of cytotoxic activity with an LD50 of >50 μM compared to <100 nM for thapsigargin. Anhydrides of dicarboxylic acids of various lengths afforded analogs in which the acyl group attached to the O-8 ended in a free carboxylic acid. A dicyclohexylcarbodiimide (DCCI) promoted coupling of a 2,4-diaminoarene to the carboxylic acid analogs affords the derivatives in which contain a primary aromatic amine as a potential coupling point for additional moeities.

[4] = target: sarcoplasmic reticulum (SR) and endoplasmic reticulum (ER) Ca2+-ATPase (SERCA) pump; conditions: read-out: apparent dissociation constant; cited from earlier work
[5] = cited from earlier work
TSU-Pr1 cells = assay: Clonogenic survival of TSU-Pr1 cells after 48 hr exposure to doxorubicin prodrugs with or without exogenously added PSA; format: cell-based, human; conditions: 50 μM prodrug
Procedure: The androgen responsive PSA-producing LNCaP and androgen independent PSA non-producing TSU-Pr1 are human prostate cancer lines were obtained from ATCC (Rockville, Md.) and maintained by serial passage in RPMI 1640 media containing 10% fetal calf serum with 100 units/ml penicillin G, and 100 units/ml streptomycin sulfate (antibiotics from M.A. Bioproducts, Walkerville, Md.) as standard media in 5% CO2/95% air at 37° C. The origins and characteristics of the LNCaP and TSU-Pr1 cell lines are described in Horoszewicz, et al., Cancer Res., 43:1809-1818, (1980)and Iizumi, et al., J. Urol, 137: 1304-1306, (1987).
Percentage clonogenic survival of TSU-Pr1 (2×10^5 cells) following 48 hr. exposure to varying concentrations of doxorubicin prodrugs with or without exogenously added PSA was performed as described in Martikainen et al., Cancer Res., 51:4693-4700, (1991).
Results for Mu-His-Ser-Ser-Lys-Leu-Gln-doxorubicin (SEQ ID NO:16) at 50 μM, were 122 colonies for treatment without PSA, and 110 colonies for treatment with 30 μg/ml enzymatically active PSA. Results are shown as averages (n=5) with standard error of 2 to 7. Assays were done in triplicate.

T1 sequence (P04191 1-994 isoform P04191-2): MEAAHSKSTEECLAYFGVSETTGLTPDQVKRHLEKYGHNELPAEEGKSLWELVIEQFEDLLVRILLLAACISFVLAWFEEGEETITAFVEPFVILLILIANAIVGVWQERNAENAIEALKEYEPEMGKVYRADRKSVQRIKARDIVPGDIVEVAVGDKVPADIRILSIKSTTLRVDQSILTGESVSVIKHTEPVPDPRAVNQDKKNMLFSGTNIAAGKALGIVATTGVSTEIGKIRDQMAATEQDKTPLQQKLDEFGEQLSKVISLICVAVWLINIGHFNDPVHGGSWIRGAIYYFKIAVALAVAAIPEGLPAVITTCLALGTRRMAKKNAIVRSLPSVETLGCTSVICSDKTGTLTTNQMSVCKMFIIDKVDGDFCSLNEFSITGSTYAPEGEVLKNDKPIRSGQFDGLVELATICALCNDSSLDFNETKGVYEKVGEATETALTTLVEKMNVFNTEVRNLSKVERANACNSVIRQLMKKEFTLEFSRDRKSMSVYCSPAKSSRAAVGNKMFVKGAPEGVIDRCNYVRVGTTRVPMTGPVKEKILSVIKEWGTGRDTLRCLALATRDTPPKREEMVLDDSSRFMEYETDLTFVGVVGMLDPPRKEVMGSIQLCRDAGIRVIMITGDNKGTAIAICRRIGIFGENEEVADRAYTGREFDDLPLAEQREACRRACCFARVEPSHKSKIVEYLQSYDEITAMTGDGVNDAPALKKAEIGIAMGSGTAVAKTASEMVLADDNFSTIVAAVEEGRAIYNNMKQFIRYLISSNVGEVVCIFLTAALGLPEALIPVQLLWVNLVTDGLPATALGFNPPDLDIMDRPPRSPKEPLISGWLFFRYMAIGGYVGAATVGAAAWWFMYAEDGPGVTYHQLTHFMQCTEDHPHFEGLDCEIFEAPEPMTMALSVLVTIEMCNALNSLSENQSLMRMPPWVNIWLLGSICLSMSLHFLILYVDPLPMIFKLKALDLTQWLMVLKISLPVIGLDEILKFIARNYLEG

Compound | IC50 [1] [nM] | CC50 [2] [nM] | LD50 (cytotoxic activity) [3] [µM] | Kd [4] [pM] | solubility in water [5] | number of TSU-Pr1 colonies, treatment with 30 μg/ml enzymatically active PSA (TSU-Pr1 cells; with 30 μg/ml PSA) [colonies] | number of TSU-Pr1 colonies, treatment without PSA (TSU-Pr1 cells; without PSA) [colonies]
C/C=C(/C)C(=O)O[C@H]1C(C)=C2[C@H]([C@@H]1OC(=O)CCCCCCC)[C@@](C)(OC(C)=O)C[C@H](OC(=O)CCC)[C@@]1(O)[C@H]2OC(=O)[C@@]1(C)O [TG, Thapsigargin] | 5 ± 0.3 | 30 ± 4 | < 0.1 | ≤ 2.2 | poorly soluble in water |  | 
C/C=C(/C)C(=O)O[C@H]1C(C)=C2[C@H]([C@@H]1OC(=O)CCCCCCC)[C@@](C)(OC(C)=O)C[C@H](O)[C@@]1(O)[C@H]2OC(=O)[C@@]1(C)O [dBTG, 8-O-debutanoylthapsigargin, reference compound] | 149 ± 21 | > 10000 | > 50 |  |  |  | 
Mu-His-Ser-Ser-Lys-Leu-Gln-doxorubicin (Mu-HSSKLQ-Dox; listed as Homo sapiens) [doxorubicin prodrug without Leu linker; b202 describes it as acetyl-capped] |  |  |  |  |  | 110 | 122
